From article PMC10454375, “Cell-Impermeable Inhibitors Confirm That Intracellular Human Transglutaminase 2 Is Responsible for the Transglutaminase-Associated Cancer Phenotype” (International Journal of Molecular Sciences, 2023) come the findings set out here.

One assay addresses T1, TG1 (Homo sapiens, UniProt P22735).
T1 construct: purchased Zedira GmbH (Darmstadt, Germany)
T1 sequence (P22735 1-817): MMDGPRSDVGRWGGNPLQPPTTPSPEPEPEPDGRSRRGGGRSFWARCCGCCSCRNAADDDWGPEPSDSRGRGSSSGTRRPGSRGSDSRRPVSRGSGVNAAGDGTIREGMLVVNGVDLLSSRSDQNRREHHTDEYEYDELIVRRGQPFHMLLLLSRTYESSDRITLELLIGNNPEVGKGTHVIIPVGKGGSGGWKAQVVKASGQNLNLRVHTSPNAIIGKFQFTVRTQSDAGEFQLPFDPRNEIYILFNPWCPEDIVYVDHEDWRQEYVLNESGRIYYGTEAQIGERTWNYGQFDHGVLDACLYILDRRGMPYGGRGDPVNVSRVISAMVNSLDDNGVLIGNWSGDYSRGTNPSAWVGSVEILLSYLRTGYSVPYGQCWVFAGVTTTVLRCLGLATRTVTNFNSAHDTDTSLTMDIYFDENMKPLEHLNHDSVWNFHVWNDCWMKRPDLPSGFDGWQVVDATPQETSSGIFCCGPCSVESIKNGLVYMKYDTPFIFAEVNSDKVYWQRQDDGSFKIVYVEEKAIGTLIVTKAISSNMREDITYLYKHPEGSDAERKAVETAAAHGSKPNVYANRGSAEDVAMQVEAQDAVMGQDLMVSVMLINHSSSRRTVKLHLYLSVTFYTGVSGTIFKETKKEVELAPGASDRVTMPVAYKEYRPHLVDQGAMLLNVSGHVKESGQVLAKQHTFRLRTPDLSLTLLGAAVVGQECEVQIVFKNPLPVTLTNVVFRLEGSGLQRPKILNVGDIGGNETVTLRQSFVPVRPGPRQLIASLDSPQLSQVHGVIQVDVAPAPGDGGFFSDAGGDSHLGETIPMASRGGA
The experiment in a line: TGase isozyme selectivity, TG1 with AL5 substrate. It is filed as biochemical. The settings on record: [I]/α identical to that of the TG2 assay. From the text: In the development of probes for TGases, isozyme selectivity is always a significant challenge. Since the catalytic machinery of the active sites of all TGases features a conserved Gly-Gln-Cys-Trp-Val sequence, selectivity for one isozyme over the others requires exploitation of slight differences in the protein substrate binding sites. In order to assess the isozyme selectivity of our cell-impermeable inhibitors, TG2 and four other therapeutically relevant TGases (Factor XIII, TG1, TG3, and TG6) were exposed to a concentration of inhibitor representing the same apparent competition with respect to the assay substrate (AL5 [38] or A101 [42, 43]). In other words, both the substrate and inhibitor concentrations were varied so that the [I]/α values were identical. […] This provides confidence that in further applications, these cell-impermeable inhibitors will selectively target TG2 over other transglutaminases.
To monitor the activity of TG3a and TG6, a FRET-quenched substrate A101 (Zedira Gmbh) was used. […] The isopeptidase activity of the respective TGase was then monitored at Ex/Em = 313/418 nm with a BioTek Synergy 4 plate reader at 25 °C. […]

A further assay relates to HaCaT cells. The experiment in a line: Cell proliferation, HaCaT. The settings on record: concentrations up to 100 µM. The assay is classed as cell-based, human. The method, then: Figure 4 Treatment of cancer cells with cell-permeable and cell-impermeable inhibitors. (A) HaCaT and SCC-13 are epidermis-derived cutaneous squamous cell carcinoma cells that were treated for 10 h with NCEG-RHB prior to imaging using a spinning disc confocal microscope. NCEG-RHB localization is detected adjacent to the nuclei (N) in both cell types and is indicated by red arrows. The HaCaT cell cultures were also stained for 15 min with MitoTracker Green before imaging. MitoTracker Green detects mitochondria membrane proteins inside the cell and the labelling is indicated by green arrows. White scale bars = 100 µm. (B) SCC-13 cells treated with cell-impermeable inhibitor 18 (NCEG2) and cell-permeable inhibitors NC9, AA9, and NCEG-RHB. Scale bars represent 50 µm; (*) p value < 0.001 (C) HaCaT cells treated with cell-impermeable inhibitor 18 (NCEG2) and cell-permeable inhibitors NC9 and AA9. Scale bars represent 50 µm; (*) p value < 0.001. (D) MDA-MB-436 cells treated with cell-impermeable 18 (NCEG2) and with cell-permeable inhibitors NC9, AA9 and NCEG-RHB. Experiments were carried out in triplicate and are represented as average ± SD of the percentage of living cells; (**) p value < 0.01.

Structures are written as SMILES. Peptide text beside a SMILES is read from it. * marks the point of attachment. X1 = C=CC(=O)NCCCCC(NC(=O)OCc1ccccc1)C(=O)N1CCN(C(=O)C(CCC(=O)*)NC(=O)c2cccc3ccccc23)CC1

As for `C=CC(=O)NCCCCC(NC(=O)OCc1ccccc1)C(=O)N1CCN(C(=O)C(CCC(=O)NCC(=O)NCC(=O)NCC(=O)NC(CC(=O)O)C(=O)NC(CC(=O)O)C(=O)NC(CC(=O)O)C(=O)O)NC(=O)c2cccc3ccccc23)CC1` (stereo not drawn) [Compound 18] (X1-GGGDDD-OH; configuration not given here), the “inhibition of TG1” value on TG1 is on record as “no detectable inhibition”. Moreover, in the assay on HaCaT cells, the “effect on cell proliferation” value was “did not have any effect on cell proliferation”.
For the compound `C=CC(=O)NCCCCC(NC(=O)OCc1ccccc1)C(=O)N1CCN(C(=O)C(CCC(=O)NCCCCCC(=O)NC(CC(=O)O)C(=O)NC(CC(=O)O)C(=O)NC(CC(=O)O)C(=O)O)NC(=O)c2cccc3ccccc23)CC1` (stereo not drawn) [Compound 17], the “inhibition of TG1” value on TG1 is listed as “no detectable inhibition”.
